How the values were obtained:
DR3 = experiment: FACS binding of FLAG-tagged soluble TL1β to cells transfected with DR3; design: species or system human
Description: A FLAG-tagged soluble form of the TL1 (aa 72-251) protein was tested for binding of cells transiently transfected with different members of the TNFR family, including TNFR2, LTβR, 4-1BB, CD27, CD30, BCMA, DR3, DR4, DR5, DR6, DcR1, DcR2, RANK, HveA, and AITR. […] The small shift (˜30%) seen when full length DR3 was used is likely due to the presence of low DR3-expressing cells while DR3 overexpressed cells undergone apoptosis.
One million cells, in 0.1 ml of FACS buffer (PBS, 0.1% BSA, 0.1% NaN3), were incubated with 0.1-1 microgram of protein or antibody at RT for 15 min. The cells were washed with 3 ml of FACS buffer, reacted with biotinylated primary antibody, and stained with PE-conjugated secondary antibody at RT for 15 min. Cells were then washed again, resuspended in 0.5 microgram/ml of propidium iodide, and live cells were gated and analyzed on a FACScan using the CellQuest software (BD Biosciences).

primary T cells = experiment: Caspase assay in PHA-activated primary T cells; format: cell-based, human; details: presence or absence of cycloheximide
Description: Overexpression of DR3 in cell lines induces capase activation (Chinnaiyan et al., Science 274:990-2 (1996); Kitson et al., Nature 384:372-5 (1996); Marsters et al., Curr. Biol. 6:1669-76 (1996); Bodmer et al., Immunity 6:79-88 (1997)). We tested whether TL1β could induce caspase activation in primary T cells.
TF-1 cells or PHA-activated primary T cells were seeded at 75,000 cells/well in a black 96-well plate with clear bottom (Becton Dickinson) in RPMI Medium containing 1% fetal bovine serum (Biowhittaker). […] Caspase activity was measured directly in the wells by adding equal volume of a lysis buffer containing 25 μM DEVD-rodamine 110 (Roche Molecular Biochemicals), and allowed the reaction to proceed at 37C for 1 to 2 hours. Release of rodarmine 110 was monitored with a Wallac Victor2 fluorescence plate reader with excitation filter 485 nm and emission filter 535 nm.

Molecule | binding to cells expressing full length or DD-deleted DR3 (DR3) | caspase activity in PHA-activated T cells (primary T cells)
FLAG-TL1β: FLAG-tagged soluble form of the TL1 (aa 72-251) protein | consisitently detected | –
FasL: Fas ligand, positive control for caspase activation in T cells (protein, UniProt P48023 130-281, looked up) Tumor necrosis factor ligand …: QIGHPSPPPEKKELRKVAHLTGKSNSRSMPLEWEDTYGIVLLSGVKYKKGGLVINETGLYFVYSKVYFRGQSCNNLPLSHKVYMRNSKYPQDLVMMEGKMMSYCTTGQMWARSSYLGAVFNLTSADHLYVNVSELSLVNFEESQTFFGLYKL | – | readily measured
